Results taken from the supplement of paper PMC10307832.

Columns and labels:
Assay in all cases: relative viability (nuclei count vs DMSO), 5 days (fraction); higher = more cells survive
Metformin + Decitabine = compound: CN(C)C(=N)NC(=N)N [Metformin] + Nc1ncn([C@H]2C[C@H](O)[C@@H](CO)O2)c(=O)n1 [Decitabine] (partner 2 µM)
Procedure, shortened: (§1)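 Lung cancer cell lines, seeded in 1536-well plates, were treated the following day by pin tool with a single drug or with five library-drug doses (not always all listed) in √10 steps on top of a fixed anchor-drug dose. Cells were fixed and nuclei stained in one step after 5 days, and nuclei were counted. Relative viability is the nuclei count for treated wells divided by that for vehicle wells, reported as medians of duplicate plates.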

Metformin + Phenformin = compound: CN(C)C(=N)NC(=N)N [Metformin] + N=C(N)NC(=N)NCCc1ccccc1 [Phenformin] (partner 250 µM)
Procedure, shortened: as §1

Apatinib + Linsitinib = compound: N#CC1(c2ccc(NC(=O)c3cccnc3NCc3ccncc3)cc2)CCCC1 [Apatinib] + C[C@]1(O)C[C@@H](c2nc(-c3ccc4ccc(-c5ccccc5)nc4c3)c3c(N)nccn32)C1 [Linsitinib] (partner 1 µM)
Procedure, shortened: as §1

Metformin + Luminespib = compound: CN(C)C(=N)NC(=N)N [Metformin] + CCNC(=O)c1noc(-c2cc(C(C)C)c(O)cc2O)c1-c1ccc(CN2CCOCC2)cc1 [Luminespib] (partner 0.01 µM)
Procedure, shortened: as §1

Cell Line: NCI-H2126
- relative viability (Metformin + Decitabine; first compound 10 µM): 0.554
- relative viability (Metformin + Decitabine; first compound 31.62 µM): 0.592
- relative viability (Metformin + Decitabine; first compound 100 µM): 0.557
- relative viability (Metformin + Decitabine; first compound 316.23 µM): 0.571
- relative viability (Metformin + Decitabine; first compound 1000 µM): 0.562
- relative viability (Metformin + Phenformin; first compound 10 µM): 0.533
- relative viability (Metformin + Phenformin; first compound 31.62 µM): 0.591
- relative viability (Metformin + Phenformin; first compound 100 µM): 0.544
- relative viability (Metformin + Phenformin; first compound 316.23 µM): 0.483
- relative viability (Metformin + Phenformin; first compound 1000 µM): 0.515
- relative viability (Apatinib + Linsitinib; first compound 0.08 µM): 0.733
- relative viability (Apatinib + Linsitinib; first compound 0.253 µM): 0.69
- relative viability (Apatinib + Linsitinib; first compound 0.8 µM): 0.675
- relative viability (Apatinib + Linsitinib; first compound 2.53 µM): 0.631
- relative viability (Apatinib + Linsitinib; first compound 8 µM): 0.652
- relative viability (Metformin + Luminespib; first compound 10 µM): 0.647
- relative viability (Metformin + Luminespib; first compound 31.62 µM): 0.956
- relative viability (Metformin + Luminespib; first compound 100 µM): 0.803
- relative viability (Metformin + Luminespib; first compound 316.23 µM): 0.571
- relative viability (Metformin + Luminespib; first compound 1000 µM): 0.496

Cell Line: NCI-H1395
- relative viability (Metformin + Decitabine; first compound 10 µM): 0.661
- relative viability (Metformin + Decitabine; first compound 31.62 µM): 0.758
- relative viability (Metformin + Decitabine; first compound 100 µM): 0.719
- relative viability (Metformin + Decitabine; first compound 316.23 µM): 0.713
- relative viability (Metformin + Decitabine; first compound 1000 µM): 0.382
- relative viability (Metformin + Phenformin; first compound 10 µM): 0.448
- relative viability (Metformin + Phenformin; first compound 31.62 µM): 0.429
- relative viability (Metformin + Phenformin; first compound 100 µM): 0.525
- relative viability (Metformin + Phenformin; first compound 316.23 µM): 0.423
- relative viability (Metformin + Phenformin; first compound 1000 µM): 0.467
- relative viability (Apatinib + Linsitinib; first compound 0.08 µM): 1.19
- relative viability (Apatinib + Linsitinib; first compound 0.253 µM): 1.08
- relative viability (Apatinib + Linsitinib; first compound 0.8 µM): 1.16
- relative viability (Apatinib + Linsitinib; first compound 2.53 µM): 1.07
- relative viability (Apatinib + Linsitinib; first compound 8 µM): 0.847
- relative viability (Metformin + Luminespib; first compound 10 µM): 0.706
- relative viability (Metformin + Luminespib; first compound 31.62 µM): 0.697
- relative viability (Metformin + Luminespib; first compound 100 µM): 0.826
- relative viability (Metformin + Luminespib; first compound 316.23 µM): 0.834
- relative viability (Metformin + Luminespib; first compound 1000 µM): 0.773

Cell Line: NCI-H1355
- relative viability (Metformin + Decitabine; first compound 10 µM): 0.402
- relative viability (Metformin + Decitabine; first compound 31.62 µM): 0.285
- relative viability (Metformin + Decitabine; first compound 100 µM): 0.332
- relative viability (Metformin + Decitabine; first compound 316.23 µM): 0.355
- relative viability (Metformin + Decitabine; first compound 1000 µM): 0.372
- relative viability (Metformin + Phenformin; first compound 10 µM): 0.472
- relative viability (Metformin + Phenformin; first compound 31.62 µM): 0.412
- relative viability (Metformin + Phenformin; first compound 100 µM): 0.474
- relative viability (Metformin + Phenformin; first compound 316.23 µM): 0.432
- relative viability (Metformin + Phenformin; first compound 1000 µM): 0.47
- relative viability (Apatinib + Linsitinib; first compound 0.08 µM): 0.97
- relative viability (Apatinib + Linsitinib; first compound 0.253 µM): 0.863
- relative viability (Apatinib + Linsitinib; first compound 0.8 µM): 0.802
- relative viability (Apatinib + Linsitinib; first compound 2.53 µM): 0.685
- relative viability (Apatinib + Linsitinib; first compound 8 µM): 0.666
- relative viability (Metformin + Luminespib; first compound 10 µM): 0.752
- relative viability (Metformin + Luminespib; first compound 31.62 µM): 0.704
- relative viability (Metformin + Luminespib; first compound 100 µM): 0.768
- relative viability (Metformin + Luminespib; first compound 316.23 µM): 0.701
- relative viability (Metformin + Luminespib; first compound 1000 µM): 0.752

Cell Line: NCI-H1792
- relative viability (Metformin + Decitabine; first compound 10 µM): 0.449
- relative viability (Metformin + Decitabine; first compound 31.62 µM): 0.428
- relative viability (Metformin + Decitabine; first compound 100 µM): 0.482
- relative viability (Metformin + Decitabine; first compound 316.23 µM): 0.386
- relative viability (Metformin + Decitabine; first compound 1000 µM): 0.496
- relative viability (Metformin + Phenformin; first compound 10 µM): 0.412
- relative viability (Metformin + Phenformin; first compound 31.62 µM): 0.442
- relative viability (Metformin + Phenformin; first compound 100 µM): 0.396
- relative viability (Metformin + Phenformin; first compound 316.23 µM): 0.462
- relative viability (Metformin + Phenformin; first compound 1000 µM): 0.383
- relative viability (Apatinib + Linsitinib; first compound 0.08 µM): 0.719
- relative viability (Apatinib + Linsitinib; first compound 0.253 µM): 0.51
- relative viability (Apatinib + Linsitinib; first compound 0.8 µM): 0.502
- relative viability (Apatinib + Linsitinib; first compound 2.53 µM): 0.491
- relative viability (Apatinib + Linsitinib; first compound 8 µM): 0.641
- relative viability (Metformin + Luminespib; first compound 10 µM): 0.599
- relative viability (Metformin + Luminespib; first compound 31.62 µM): 0.57
- relative viability (Metformin + Luminespib; first compound 100 µM): 0.789
- relative viability (Metformin + Luminespib; first compound 316.23 µM): 0.418
- relative viability (Metformin + Luminespib; first compound 1000 µM): 0.485

Cell Line: NCI-H596
- relative viability (Metformin + Decitabine; first compound 10 µM): 1.17
- relative viability (Metformin + Decitabine; first compound 31.62 µM): 1.12
- relative viability (Metformin + Decitabine; first compound 100 µM): 1.06
- relative viability (Metformin + Decitabine; first compound 316.23 µM): 1.01
- relative viability (Metformin + Decitabine; first compound 1000 µM): 1.11
- relative viability (Metformin + Phenformin; first compound 10 µM): 0.84
- relative viability (Metformin + Phenformin; first compound 31.62 µM): 0.73
- relative viability (Metformin + Phenformin; first compound 100 µM): 0.689
- relative viability (Metformin + Phenformin; first compound 316.23 µM): 0.765
- relative viability (Metformin + Phenformin; first compound 1000 µM): 0.952
- relative viability (Apatinib + Linsitinib; first compound 0.08 µM): 1.23
- relative viability (Apatinib + Linsitinib; first compound 0.253 µM): 1.05
- relative viability (Apatinib + Linsitinib; first compound 0.8 µM): 1.02
- relative viability (Apatinib + Linsitinib; first compound 2.53 µM): 0.994
- relative viability (Apatinib + Linsitinib; first compound 8 µM): 0.795
- relative viability (Metformin + Luminespib; first compound 10 µM): 0.98
- relative viability (Metformin + Luminespib; first compound 31.62 µM): 1.18
- relative viability (Metformin + Luminespib; first compound 100 µM): 1.08
- relative viability (Metformin + Luminespib; first compound 316.23 µM): 1.02
- relative viability (Metformin + Luminespib; first compound 1000 µM): 1.06

Cell Line: NCI-H23
- relative viability (Metformin + Decitabine; first compound 10 µM): 0.273
- relative viability (Metformin + Decitabine; first compound 31.62 µM): 0.276
- relative viability (Metformin + Decitabine; first compound 100 µM): 0.285
- relative viability (Metformin + Decitabine; first compound 316.23 µM): 0.324
- relative viability (Metformin + Decitabine; first compound 1000 µM): 0.328
- relative viability (Metformin + Phenformin; first compound 10 µM): 0.743
- relative viability (Metformin + Phenformin; first compound 31.62 µM): 0.716
- relative viability (Metformin + Phenformin; first compound 100 µM): 0.716
- relative viability (Metformin + Phenformin; first compound 316.23 µM): 0.729
- relative viability (Metformin + Phenformin; first compound 1000 µM): 0.897
- relative viability (Apatinib + Linsitinib; first compound 0.08 µM): 0.694
- relative viability (Apatinib + Linsitinib; first compound 0.253 µM): 0.652
- relative viability (Apatinib + Linsitinib; first compound 0.8 µM): 0.501
- relative viability (Apatinib + Linsitinib; first compound 2.53 µM): 0.568
- relative viability (Apatinib + Linsitinib; first compound 8 µM): 0.542
- relative viability (Metformin + Luminespib; first compound 10 µM): 0.207
- relative viability (Metformin + Luminespib; first compound 31.62 µM): 0.244
- relative viability (Metformin + Luminespib; first compound 100 µM): 0.218
- relative viability (Metformin + Luminespib; first compound 316.23 µM): 0.272
- relative viability (Metformin + Luminespib; first compound 1000 µM): 0.214

Cell Line: HCC-15
- relative viability (Metformin + Decitabine; first compound 10 µM): 0.548
- relative viability (Metformin + Decitabine; first compound 31.62 µM): 0.636
- relative viability (Metformin + Decitabine; first compound 100 µM): 0.703
- relative viability (Metformin + Decitabine; first compound 316.23 µM): 0.662
- relative viability (Metformin + Decitabine; first compound 1000 µM): 0.703
- relative viability (Metformin + Phenformin; first compound 31.62 µM): 0.495
- relative viability (Metformin + Phenformin; first compound 100 µM): 0.464
- relative viability (Metformin + Phenformin; first compound 316.23 µM): 0.426
- relative viability (Metformin + Phenformin; first compound 1000 µM): 0.491
- relative viability (Apatinib + Linsitinib; first compound 0.08 µM): 1.02
- relative viability (Apatinib + Linsitinib; first compound 0.253 µM): 0.937
- relative viability (Apatinib + Linsitinib; first compound 0.8 µM): 0.813
- relative viability (Apatinib + Linsitinib; first compound 2.53 µM): 0.878
- relative viability (Apatinib + Linsitinib; first compound 8 µM): 0.878
- relative viability (Metformin + Luminespib; first compound 31.62 µM): 0.235
- relative viability (Metformin + Luminespib; first compound 100 µM): 0.348
- relative viability (Metformin + Luminespib; first compound 316.23 µM): 0.35
- relative viability (Metformin + Luminespib; first compound 1000 µM): 0.321

Cell Line: HCC-44
- relative viability (Metformin + Decitabine; first compound 31.62 µM): 0.934
- relative viability (Metformin + Decitabine; first compound 100 µM): 0.927
- relative viability (Metformin + Decitabine; first compound 316.23 µM): 0.959
- relative viability (Metformin + Decitabine; first compound 1000 µM): 0.966
- relative viability (Metformin + Phenformin; first compound 10 µM): 0.236
- relative viability (Metformin + Phenformin; first compound 31.62 µM): 0.35
- relative viability (Metformin + Phenformin; first compound 100 µM): 0.298
- relative viability (Metformin + Phenformin; first compound 316.23 µM): 0.223
- relative viability (Metformin + Phenformin; first compound 1000 µM): 0.166
- relative viability (Apatinib + Linsitinib; first compound 0.08 µM): 0.673
- relative viability (Apatinib + Linsitinib; first compound 0.253 µM): 0.759
- relative viability (Apatinib + Linsitinib; first compound 0.8 µM): 0.66
- relative viability (Apatinib + Linsitinib; first compound 2.53 µM): 0.711
- relative viability (Apatinib + Linsitinib; first compound 8 µM): 0.592
- relative viability (Metformin + Luminespib; first compound 10 µM): 1.19
- relative viability (Metformin + Luminespib; first compound 31.62 µM): 1.07
- relative viability (Metformin + Luminespib; first compound 100 µM): 1.03
- relative viability (Metformin + Luminespib; first compound 316.23 µM): 0.926
- relative viability (Metformin + Luminespib; first compound 1000 µM): 0.748
